According to US20230279020A9, “CARM1 INHIBITORS AND USES THEREOF” (Epizyme, Inc., priority 2013, published 2023):
pIC50: −log10 of the molar value.

Target: Human CARM1 (PRMT4) (Homo sapiens (Human), UniProt Q86X55)
Assay: CARM1 enzyme assay on peptide substrate (3H-SAM Flashplate)
Settings: Biochemical potencies, classification codes; read-out: Biochem IC50

Sequence of Human CARM1 (PRMT4) (Q86X55 other isoform, or with tags, fused parts or gaps isoform Q86X55-1): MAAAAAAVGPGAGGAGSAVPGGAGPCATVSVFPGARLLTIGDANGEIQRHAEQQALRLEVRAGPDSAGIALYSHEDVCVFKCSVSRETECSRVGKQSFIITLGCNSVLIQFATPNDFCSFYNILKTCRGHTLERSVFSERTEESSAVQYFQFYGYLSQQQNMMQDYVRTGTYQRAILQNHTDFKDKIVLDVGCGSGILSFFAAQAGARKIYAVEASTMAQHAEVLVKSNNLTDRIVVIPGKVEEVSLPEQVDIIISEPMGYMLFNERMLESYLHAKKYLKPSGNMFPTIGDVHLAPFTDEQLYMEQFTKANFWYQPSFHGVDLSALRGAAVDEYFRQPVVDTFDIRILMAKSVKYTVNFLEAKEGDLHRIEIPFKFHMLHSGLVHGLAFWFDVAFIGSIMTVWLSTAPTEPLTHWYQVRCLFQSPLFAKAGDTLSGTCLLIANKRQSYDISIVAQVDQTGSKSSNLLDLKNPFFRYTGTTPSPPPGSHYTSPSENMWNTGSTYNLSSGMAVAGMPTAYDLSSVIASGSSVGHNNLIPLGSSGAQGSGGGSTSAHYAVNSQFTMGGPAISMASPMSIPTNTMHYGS

| pIC50 | SMILES |
| --- | --- |
| > 7.00 | CNCC(O)COc1cccc(-c2nc(NCC3CN(C)CCO3)c(C)c(-c3c(C)noc3C)n2)c1 (centres unmarked) [Example 171-1a] |
| > 7.00 | Cc1noc(C)c1-c1nc(-c2cc(OC[C@H](O)CN(C)C)ccc2Cl)nc(N[C@H]2CCN(C3CC3)[C@@H](C)C2)c1C [Example 171-3] |
| > 7.00 | CCOC(=O)N1CCC(N(C)c2cc(-c3c(C)noc3C)nc(-c3cccc(OCC(O)CNC)c3)n2)CC1 (centres unmarked) [Example 172-1a] |
| > 7.00 | CNC[C@@H](O)COc1ccc(Cl)c(-c2nc(N[C@H]3C[C@@H](C)O[C@@H](C)C3)c(C)c(-c3c(C)noc3C)n2)c1 [Example 172-3] |
| > 7.00 | CNC[C@@H](O)COc1ccc(Cl)c(-c2nc(N[C@H]3C[C@@H](C)O[C@@H](C)C3)c(Cl)c(-c3c(C)noc3C)n2)c1 [Example 173-3] |
| > 7.00 | CNCC(O)COc1cccc(-c2nc(-c3c(C)noc3C)cc(N3CCN(CC(F)F)[C@H](C)C3)n2)c1 (some centres unmarked) [Example 174-1a] |
| > 7.00 | CNC[C@@H](O)COc1ccc(Cl)c(-c2nc(-c3c(C)noc3C)c(C)c(N3CCc4ccncc43)n2)c1 [Example 174-3] |
| > 7.00 | CNCC(O)COc1cccc(-c2nc(-c3c(C)noc3C)cc(N3CCN(C)[C@H](C)C3)n2)c1 (some centres unmarked) [Example 175-1a] |
| > 7.00 | CNC[C@@H](O)COc1ccc(Cl)c(-c2nc(-c3c(C)noc3C)c(C)c(N3CC4(CCN(C(=O)OC)C4)C3)n2)c1 [Example 175-3] |
| > 7.00 | CNCC(O)COc1cccc(-c2nc(-c3c(C)noc3C)c(C)c(N3CCO[C@@H](CN(C)C(=O)N(C)C)C3)n2)c1 (some centres unmarked) [Example 176-1a] |
| > 7.00 | CNC[C@@H](O)COc1ccc(Cl)c(-c2nc(-c3c(C)noc3C)c(C)c(N3CC4(CCN(C5CC5)C4)C3)n2)c1 [Example 176-3] |
| > 7.00 | CNCC(O)COc1cccc(-c2nc(-c3c(C)noc3C)c(C)c(N3CCC[C@@H](NC)C3)n2)c1 (some centres unmarked) [Example 177-1a] |
| > 7.00 | CNC[C@@H](O)COc1ccc(Cl)c(-c2nc(-c3c(C)noc3C)c(C)c(N3CCC4(CN(C(=O)OC)C4)C3)n2)c1 [Example 177-3] |
| > 7.00 | CC[C@H]1CN(c2nc(-c3cccc(OCC(O)CNC)c3)nc(-c3c(C)noc3C)c2C)CCN1C1CC1 (some centres unmarked) [Example 178-1a] |
| > 7.00 | CNC[C@@H](O)COc1ccc(Cl)c(-c2nc(-c3c(C)noc3C)c(C)c(N3CCC4(C3)CN(C3CC3)C4)n2)c1 [Example 178-3] |
| > 7.00 | CNCC(O)COc1cccc(-c2nc(-c3c(C)noc3C)c(C)c(N3CCC4(CC3)CN(S(C)(=O)=O)C4)n2)c1 (centres unmarked) [Example 179-1a] |
| > 7.00 | CNC[C@@H](O)COc1ccc(Cl)c(-c2nc(N[C@@H]3CO[C@H](C)C3)c(C)c(-c3c(C)noc3C)n2)c1 [Example 179-3] |
| > 7.00 | CNC[C@@H](O)COc1ccc(Cl)c(-c2nc(N[C@@H]3CO[C@H](C)C3)c(Cl)c(-c3c(C)noc3C)n2)c1 [Example 180-3] |
| > 7.00 | CNCC(O)COc1cccc(-c2nc(OC3CCOCC3)c(C)c(-c3c(C)noc3C)n2)c1 (centres unmarked) [Example 181-1a] |
| > 7.00 | CNC[C@@H](O)COc1ccc(Cl)c(-c2nc(N[C@@H]3CO[C@@H](C)C3)c(Cl)c(-c3c(C)noc3C)n2)c1 [Example 181-3] |
| > 7.00 | CNCC(O)COc1cccc(-c2nc(OCC3CCOCC3)c(C)c(-c3c(C)noc3C)n2)c1 (centres unmarked) [Example 182-1a] |

| pIC50 | SMILES |
| --- | --- |
| > 7.00 | CNC[C@@H](O)COc1ccc(Cl)c(-c2nc(N[C@@H]3C[C@@H](C)O[C@@H](C)C3)c(C)c(-c3c(C)noc3C)n2)c1 [Example 182-3] |
| > 7.00 | CNC[C@@H](O)COc1cccc(-c2nc(NCC3CCOCC3)c(C)c(-c3c(C)noc3C)n2)c1 [Example 183-1a] |
| > 7.00 | CNC[C@@H](O)COc1ccc(Cl)c(-c2nc(N[C@@H]3C[C@@H](C)O[C@@H](C)C3)c(Cl)c(-c3c(C)noc3C)n2)c1 [Example 183-3] |
| > 7.00 | CNCC(O)COc1cccc(-c2nc(NCC3CCN(C(=O)OC)CC3)c(C)c(-c3c(C)noc3C)n2)c1 (centres unmarked) [Example 184-1a] |
| > 7.00 | CNC[C@@H](O)COc1ccc(Cl)c(-c2nc(-c3c(C)noc3C)c(C)c(N3CC(F)(F)C3)n2)c1 [Example 184-3] |
| > 7.00 | CNCC(O)COc1cccc(-c2nc(NC3CCN(C4CC4)CC3)c(C)c(-c3c(C)noc3C)n2)c1 (centres unmarked) [Example 185-1a] |
| > 7.00 | CNC[C@@H](O)COc1ccc(F)c(-c2nc(-c3c(C)noc3C)c(C)c(N3Cc4cc(Cl)cnc4C3)n2)c1 [Example 185-3] |
| > 7.00 | CNCC(O)COc1cccc(-c2nc(NC3CCN(C(=O)OC)C3)c(C)c(-c3c(C)noc3C)n2)c1 (centres unmarked) [Example 186-1a] |
| > 7.00 | CNC[C@@H](O)COc1ccc(Cl)c(-c2nc(-c3c(C)noc3C)c(C)c(N3C[C@H]4COC[C@H]4C3)n2)c1 [Example 186-3] |
| > 7.00 | CNCC(O)COc1ccc(Cl)c(-c2nc(NC3CCN(C(=O)OC)CC3)c(Cl)c(-c3c(C)noc3C)n2)c1 (centres unmarked) [Example 187-1a] |
| > 7.00 | CNC[C@@H](O)COc1ccc(Cl)c(-c2nc(-c3c(C)noc3C)c(C)c(N3CCOC3=O)n2)c1 [Example 187-3] |
| > 7.00 | CNC[C@@H](O)COc1ccc(Cl)c(-c2nc(NC3CC(F)C3)c(C)c(-c3c(C)noc3C)n2)c1 (some centres unmarked) [Example 188-3] |
| > 7.00 | CCOC(=O)N1CCC(Nc2nc(-c3cccc(OCC(O)CNC)c3)nc(-c3c(C)noc3C)c2C)CC1 (centres unmarked) [Example 189-1a] |
| > 7.00 | CNC[C@@H](O)COc1ccc(Cl)c(-c2nc(NC3CC(F)(F)C3)c(C)c(-c3c(C)noc3C)n2)c1 [Example 189-3] |
| > 7.00 | CCOC(=O)N1CCCC(Nc2nc(-c3cccc(OCC(O)CNC)c3)nc(-c3c(C)noc3C)c2C)C1 (centres unmarked) [Example 190-1a] |
| > 7.00 | CNC[C@@H](O)COc1ccc(Cl)c(-c2nc(-c3c(C)noc3C)c(C)c(N3Cc4cncnc4C3)n2)c1 [Example 190-3] |
| > 7.00 | CCOC(=O)N1CCC(CNc2nc(-c3cccc(OCC(O)CNC)c3)nc(-c3c(C)noc3C)c2C)CC1 (centres unmarked) [Example 191-1a] |
| > 7.00 | CCO[C@@H]1CCC[C@H]1Nc1nc(-c2cc(OC[C@H](O)CNC)ccc2F)nc(-c2c(C)noc2C)c1C [Example 191-3] |
| > 7.00 | CCS(=O)(=O)N1CCC(CNc2nc(-c3cccc(OCC(O)CNC)c3)nc(-c3c(C)noc3C)c2C)CC1 (centres unmarked) [Example 192-1a] |
| > 7.00 | CNC[C@@H](O)COc1ccc(Cl)c(-c2nc(-c3c(C)noc3C)c(C)c(N3Cc4nc(C)sc4C3)n2)c1 [Example 192-3] |
| > 7.00 | CNCC(O)COc1cccc(-c2nc(NCC3CCCN(CC(F)F)C3)c(C)c(-c3c(C)noc3C)n2)c1 (centres unmarked) [Example 193-1a] |

| pIC50 | SMILES |
| --- | --- |
| > 7.00 | CCOC(=O)N1CCCC(CNc2nc(-c3cccc(OCC(O)CNC)c3)nc(-c3c(C)noc3C)c2C)C1 (centres unmarked) [Example 194-1a] |
| > 7.00 | CNC[C@@H](O)COc1ccc(Cl)c(-c2nc(N[C@@H]3CCN(C)C[C@@H]3F)c(C)c(-c3c(C)noc3C)n2)c1 [Example 194-3] |
| > 7.00 | CNCC(O)COc1cccc(-c2nc(NC3CCN(CC(F)F)C3)c(C)c(-c3c(C)noc3C)n2)c1 (centres unmarked) [Example 195-1a] |
| > 7.00 | CNC[C@@H](O)COc1ccc(Cl)c(-c2nc(N[C@H]3CCN(C4CC4)C[C@H]3F)c(Cl)c(-c3c(C)noc3C)n2)c1 [Example 195-3] |
| > 7.00 | CCOC(=O)N1CCC(Nc2nc(-c3cccc(OCC(O)CNC)c3)nc(-c3c(C)noc3C)c2C)C1 (centres unmarked) [Example 196-1a] |
| > 7.00 | CNC[C@@H](O)COc1ccc(Cl)c(-c2nc(N[C@H]3CCO[C@H](C)C3)c(C)c(-c3c(C)noc3C)n2)c1 [Example 196-3] |
| > 7.00 | CCS(=O)(=O)N1CCC(Nc2nc(-c3cccc(OCC(O)CNC)c3)nc(-c3c(C)noc3C)c2C)C1 (centres unmarked) [Example 197-1a] |
| > 7.00 | CNC[C@@H](O)COc1ccc(Cl)c(-c2nc(N[C@H]3CCO[C@H](C)C3)c(Cl)c(-c3c(C)noc3C)n2)c1 [Example 197-3] |
| > 7.00 | CNCC(O)COc1cccc(-c2nc(NC3CCCN(S(C)(=O)=O)C3)c(C)c(-c3c(C)noc3C)n2)c1 (centres unmarked) [Example 198-1a] |
| > 7.00 | CNC[C@@H](O)COc1ccc(Cl)c(-c2nc(N[C@H]3CO[C@H](C)C3)c(C)c(-c3c(C)noc3C)n2)c1 [Example 198-3] |
| > 7.00 | CNCC(O)COc1cccc(-c2nc(-c3c(C)noc3C)c(C)c(N3C[C@H](C)O[C@@H](C)C3)n2)c1 (some centres unmarked) [Example 199-1a] |
| > 7.00 | CNC[C@@H](O)COc1ccc(Cl)c(-c2nc(-c3c(C)noc3C)c(C)c(N3CCc4ncccc43)n2)c1 [Example 199-3] |
| > 7.00 | CNCC(O)COc1cccc(-c2nc(-c3c(C)noc3C)c(C)c(N3CCOC(C)(C)C3)n2)c1 (centres unmarked) [Example 200-1a] |
| > 7.00 | CNC[C@@H](O)COc1ccc(C(F)(F)F)c(-c2nc(NC3CCOCC3)c(C)c(-c3c(C)noc3C)n2)c1 [Example 200-3] |
| > 7.00 | CNCC(O)COc1cccc(-c2nc(NC3CCCN(C(=O)OC)C3)c(C)c(-c3c(C)noc3C)n2)c1 (centres unmarked) [Example 201-1a] |
| > 7.00 | CNC[C@@H](O)COc1ccc(Cl)c(-c2nc(N[C@H]3CO[C@H](C)C3)c(Cl)c(-c3c(C)noc3C)n2)c1 [Example 201-3] |
| > 7.00 | CNCC(O)COc1cccc(-c2nc(NC3CCN(C(=O)OC)CC3)c(Cl)c(-c3c(C)noc3C)n2)c1 (centres unmarked) [Example 202-1a] |
| > 7.00 | CNC[C@@H](O)COc1ccc(Cl)c(-c2nc(N[C@H]3CN(C(=O)OC)C[C@@H]3F)c(C)c(-c3c(C)noc3C)n2)c1 [Example 202-3] |
| > 7.00 | CNC[C@@H](O)COc1ccc(Cl)c(-c2nc(N[C@H]3CN(C4CC4)C[C@@H]3F)c(C)c(-c3c(C)noc3C)n2)c1 [Example 203-3] |
| > 7.00 | CCS(=O)(=O)N1CCCC(Nc2nc(-c3cccc(OCC(O)CNC)c3)nc(-c3c(C)noc3C)c2C)C1 (centres unmarked) [Example 204-1a] |
| > 7.00 | CNC[C@@H](O)COc1ccc(C(F)(F)F)c(-c2nc(NC3CCN(C(=O)OC)CC3)c(C)c(-c3c(C)noc3C)n2)c1 [Example 204-3] |

| SMILES | pIC50 |
| --- | --- |
| CNCC(O)COc1cccc(-c2nc(NC3CCN(CC(F)F)CC3)c(C)c(-c3c(C)noc3C)n2)c1 (centres unmarked) [Example 188-1a] | > 7.00 |
| CNCC(O)COc1cccc(-c2nc(NC3CCCN(CC(F)F)C3)c(C)c(-c3c(C)noc3C)n2)c1 (centres unmarked) [Example 203-1a] | > 7.00 |
